This passage reports IC50 results from US20170121315A1, “HETEROBICYCLICALLY SUBSTITUTED 4-OXOBUTANE ACID DERIVATIVES AND USE THEREOF” (priority 2014, published 2017).

Some results are limits rather than exact numbers.

Type in all cases: biochemical
One assay has as its target T1, MMP-3 (Homo sapiens, UniProt P08254).
T1 construct: purchased R&D Systems 513-MP
The assay can be described thus: In vitro MMP-3 inhibition test. As to conditions: human MMP-3. The source says: (§1) The MMP-mediated amidolytic cleavage of a suitable peptide substrate leads to an increase in fluorescent light here too. The signal intensity of the fluorescent light is directly proportional to the enzyme activity. The active concentration of a test compound at which half the enzyme is inhibited (50% signal intensity of the fluorescent light) is reported as the IC50 value.
(§2) Recombinant MMP-3 (R&D Systems, 513-MP) is chemically activated in accordance with the manufacturer's instructions using APMA. 1 μl of the test compound to be analysed (as a solution in DMSO, suitable concentrations e.g. 1 nM to 30 μM) is pipetted into 24 μl of activated enzyme (final concentration e.g. 2 nM) in reaction buffer (50 mM Tris/HCl pH 7.5, 10 mM CaCl2, 150 mM NaCl, 0.05% Brij®-35) in a white 384-hole microtiter plate (MTP). The enzymatic reaction is started by adding the intramolecularly quenched Mca-Arg-Pro-Lys-Pro-Val-Glu-Nval-Trp-Arg-Lys(Dnp)-NH2 substrate (final concentration e.g. 10 μM; R&D Systems, ES-002), so as to result in a total test volume of 50 μl. The course of the MMP-3 reaction is measured by measuring the fluorescence intensity (excitation 320 nm, emission 410 nm) over a suitable period of time (e.g. over 120 min at a temperature of 32° C.).

A further assay has as its target T2, MMP-7 (Homo sapiens, UniProt P09237).
T2 construct: purchased R&D Systems 907-MP
T2 sequence (P09237 95-267): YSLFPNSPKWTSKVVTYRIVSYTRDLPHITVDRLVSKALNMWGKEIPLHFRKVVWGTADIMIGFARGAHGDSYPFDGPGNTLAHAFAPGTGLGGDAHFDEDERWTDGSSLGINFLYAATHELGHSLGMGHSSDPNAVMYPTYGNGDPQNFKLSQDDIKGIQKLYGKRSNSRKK
The assay can be described thus: In vitro MMP-7 inhibition test. The conditions noted are these: human MMP-7.
Text: as §1
as §2, with “Recombinant MMP-7 (from R&D” for “Recombinant MMP-3 (R&D”, “Systems, 907-MP)” for “Systems, 513-MP)”, “e.g. 0.5” for “e.g. 2”, “quenched Mca-Pro-Leu-Gly-Leu-Dpa(Dnp)-Ala-Arg-NH2” for “quenched Mca-Arg-Pro-Lys-Pro-Val-Glu-Nval-Trp-Arg-Lys(Dnp)-NH2”, “Systems, ES-001),” for “Systems, ES-002),”, “the MMP-7” for “the MMP-3”

The next assay deals with T3, MMP-16 (Homo sapiens, UniProt P51512).
T3 construct: purchased R&D Systems 1785-MP
T3 sequence (P51512 120-564 limits assumed): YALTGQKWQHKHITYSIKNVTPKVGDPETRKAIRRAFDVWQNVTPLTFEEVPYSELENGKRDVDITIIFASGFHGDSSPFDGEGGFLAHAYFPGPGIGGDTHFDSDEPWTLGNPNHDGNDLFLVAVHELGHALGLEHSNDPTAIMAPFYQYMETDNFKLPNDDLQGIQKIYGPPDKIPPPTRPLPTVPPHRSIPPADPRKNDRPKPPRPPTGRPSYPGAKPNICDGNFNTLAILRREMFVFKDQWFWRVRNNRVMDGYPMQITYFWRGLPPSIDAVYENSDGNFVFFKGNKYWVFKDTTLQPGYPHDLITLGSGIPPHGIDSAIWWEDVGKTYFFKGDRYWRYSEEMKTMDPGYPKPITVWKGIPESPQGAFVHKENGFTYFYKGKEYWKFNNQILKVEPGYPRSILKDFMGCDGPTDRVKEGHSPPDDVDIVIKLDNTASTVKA
Put plainly: In vitro MMP-16 inhibition test. As to conditions: human MMP-16.
Text: as §1
Recombinant MMP-16 (R&D Systems, 1785-MP) is enzymatically activated in accordance with the manufacturer's instructions using recombinant furin (R&D Systems, 1503-SE). 1 μl of the test compound to be analysed (as a solution in DMSO, suitable concentrations e.g. 1 nM to 30 μM) is pipetted into 24 μl of activated enzyme (final concentration e.g. 1 nM) in reaction buffer (50 mM Tris/HCl pH 7.5, 10 mM CaCl2, 150 mM NaCl, 0.05% Brij®-35) in a white 384-hole microtiter plate (MTP). The enzymatic reaction is started by adding the intramolecularly quenched Mca-Lys-Pro-Leu-Gly-Leu-Dpa(Dnp)-Ala-Arg-NH2 substrate (final concentration e.g. 5 μM; R&D Systems, ES-010), so as to result in a total test volume of 50 μl. The course of the MMP-16 reaction is measured by measuring the fluorescence intensity (excitation 320 nm, emission 410 nm) over a suitable period of time (e.g. over 120 min at a temperature of 32° C.).

A further assay addresses T4, MMP-9 (Homo sapiens, UniProt P14780).
T4 construct: purchased R&D Systems 911-MP
The assay can be described thus: In vitro MMP-9 inhibition test. As to conditions: human MMP-9.
Text: as §1
as §2, with “Recombinant MMP-9” for “Recombinant MMP-3”, “Systems, 911-MP)” for “Systems, 513-MP)”, “e.g. 0.1” for “e.g. 2”, “quenched Mca-Pro-Leu-Gly-Leu-Dpa(Dnp)-Ala-Arg-NH2” for “quenched Mca-Arg-Pro-Lys-Pro-Val-Glu-Nval-Trp-Arg-Lys(Dnp)-NH2”, “Systems, ES-001),” for “Systems, ES-002),”, “the MMP-9” for “the MMP-3”

A further assay concerns the target T5, MMP-13 (Homo sapiens, UniProt P45452).
T5 construct: purchased R&D Systems 511-MP
Put plainly: In vitro MMP-13 inhibition test. The conditions noted are these: human MMP-13.
Text: as §1
as §2, with “Recombinant MMP-13” for “Recombinant MMP-3”, “Systems, 511-MP)” for “Systems, 513-MP)”, “e.g. 0.1” for “e.g. 2”, “quenched Mca-Pro-Leu-Gly-Leu-Dpa(Dnp)-Ala-Arg-NH2” for “quenched Mca-Arg-Pro-Lys-Pro-Val-Glu-Nval-Trp-Arg-Lys(Dnp)-NH2”, “Systems, ES-001),” for “Systems, ES-002),”, “the MMP-13” for “the MMP-3”

T4 sequence (P14780 107-707 limits assumed): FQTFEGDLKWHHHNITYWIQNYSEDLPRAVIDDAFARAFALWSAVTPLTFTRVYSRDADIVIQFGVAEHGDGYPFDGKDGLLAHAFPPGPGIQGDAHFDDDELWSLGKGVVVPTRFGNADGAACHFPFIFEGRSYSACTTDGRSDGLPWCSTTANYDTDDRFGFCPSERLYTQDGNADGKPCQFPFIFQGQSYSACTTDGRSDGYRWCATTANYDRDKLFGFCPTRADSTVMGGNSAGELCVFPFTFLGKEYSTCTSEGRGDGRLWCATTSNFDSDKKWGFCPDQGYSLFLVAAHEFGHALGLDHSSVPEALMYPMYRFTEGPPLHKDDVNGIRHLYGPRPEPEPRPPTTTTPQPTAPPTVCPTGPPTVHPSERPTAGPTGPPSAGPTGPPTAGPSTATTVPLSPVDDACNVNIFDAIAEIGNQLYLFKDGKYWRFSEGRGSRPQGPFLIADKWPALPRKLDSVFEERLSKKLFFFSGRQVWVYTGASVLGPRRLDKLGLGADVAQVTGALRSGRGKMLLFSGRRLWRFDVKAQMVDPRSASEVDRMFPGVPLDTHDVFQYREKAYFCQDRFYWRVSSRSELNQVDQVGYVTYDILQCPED
T1 sequence (P08254 100-477): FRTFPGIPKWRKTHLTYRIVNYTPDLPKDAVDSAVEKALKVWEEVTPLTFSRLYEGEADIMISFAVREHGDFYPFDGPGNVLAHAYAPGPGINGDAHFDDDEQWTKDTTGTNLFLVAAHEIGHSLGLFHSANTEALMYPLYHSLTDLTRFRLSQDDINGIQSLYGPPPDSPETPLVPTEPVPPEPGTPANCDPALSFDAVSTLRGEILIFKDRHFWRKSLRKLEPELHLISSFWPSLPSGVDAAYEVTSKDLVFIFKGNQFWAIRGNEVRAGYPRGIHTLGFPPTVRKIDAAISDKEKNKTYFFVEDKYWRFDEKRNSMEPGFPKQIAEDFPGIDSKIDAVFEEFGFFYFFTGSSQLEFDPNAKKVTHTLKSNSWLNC

For `O=C(CC(CCn1nnc2ccc(C(F)(F)F)cc2c1=O)C(=O)O)c1noc2cc(OCC3CCOCC3)ccc12` (racemic) [Example 155, (+/−)-4-Oxo-2-{2-[4-oxo-6-(trifluoromethyl)-1,2,3-benzotriazin-3(4H)-yl]ethyl}-4-[6-(tetrahydro-2H-pyran-4-ylmethoxy)-1,2-benzoxazol-3-yl]butanoic acid], the IC50 against MMP-3 worked out at 19 µM; against MMP-7, 24 µM; on MMP-16, 30 µM; at MMP-9, 2.8 µM; at MMP-13, 2.7 µM.
For `O=C(CC(CCn1nnc2ccccc2c1=O)C(=O)O)c1coc2cc(OCCC3CCOCC3)ccc12` (racemic) [Example 74, (+/−)-4-Oxo-2-[2-(4-oxo-1,2,3-benzotriazin-3(4H)-yl)ethyl]-4-{6-[2-(tetrahydro-2H-pyran-4-yl)ethoxy]-1-benzofur-3-yl}butanoic acid], in that order: 16 µM, greater than 40 µM, 6.4 µM, 0.18 µM and 0.25 µM.
For `O=C(CC(CCn1nnc2ccccc2c1=O)C(=O)O)c1cc2cc(OCCCc3ccccc3)ccc2o1` (racemic) [Example 37, (+/−)-4-Oxo-2-[2-(4-oxo-1,2,3-benzotriazin-3(4H)-yl)ethyl]-4-[5-(3-phenylpropoxy)-1-benzofur-2-yl]butanoic acid], in that order: 39 µM, greater than 40 µM, greater than 40 µM, 17 µM and 5.2 µM.
For `O=C(CC(CCn1nnc2ccccc2c1=O)C(=O)O)c1noc2cc(OCc3ccc(F)cc3)ccc12` (racemic) [Example 136, (+/−)-4-{6-[(4-Fluorobenzyl)oxy]-1,2-benzoxazol-3-yl}-4-oxo-2-[2-(4-oxo-1,2,3-benzotriazin-3(4H)-yl)ethyl]butanoic acid], in that order: 15 µM, greater than 40 µM, 30 µM, 0.19 µM and 0.97 µM.
In the case of `CCCCCOc1ccc2c(C(=O)CC(CCn3nnc4ccccc4c3=O)C(=O)O)coc2c1` (racemic) [Example 89, (+/−)-4-Oxo-2-[2-(4-oxo-1,2,3-benzotriazin-3(4H)-yl)ethyl]-4-[6-(pentyloxy)-1-benzofur-3-yl]butanoic acid], the IC50 against MMP-3 is greater than 40 µM; against MMP-7, greater than 40 µM; at MMP-16, greater than 40 µM; at MMP-9 it was 0.23 µM; on MMP-13, 0.67 µM.
Regarding `O=C(CC(CCn1nnc2ccccc2c1=O)C(=O)O)c1cc2ccc(OCC3CC3)cc2s1` (single isomer, unassigned; (+)) [Example 112, (+)-4-[6-(Cyclopropylmethoxy)-1-benzothiophen-2-yl]-4-oxo-2-[2-(4-oxo-1,2,3-benzotriazin-3(4H)-yl)ethyl]butanoic acid], the IC50 against MMP-3 amounted to 6.4 µM; at MMP-7, 3.2 µM; against MMP-16, 37 µM; on MMP-9 it was 0.59 µM; against MMP-13, 1.3 µM.
For `O=C(CC(CCn1nnc2ccccc2c1=O)C(=O)O)c1cc2cc(OCC3CCCCC3)ccc2o1` (racemic) [Example 8, (+/−)-4-[5-(Cyclohexylmethoxy)-1-benzofur-2-yl]-4-oxo-2-[2-(4-oxo-1,2,3-benzotriazin-3(4H)-yl)ethyl]butanoic acid] the same measures were greater than 40 µM, greater than 40 µM, greater than 40 µM, 13 µM and 22 µM.
For `Cc1cccc(COc2ccc3oc(C(=O)CC(CCn4nnc5ccccc5c4=O)C(=O)O)cc3c2)c1` (racemic) [Example 51, (+/−)-4-{5-[(3-Methylbenzyl)oxy]-1-benzofur-2-yl}-4-oxo-2-[2-(4-oxo-1,2,3-benzotriazin-3(4H)-yl)ethyl]butanoic acid] the same measures were greater than 40 µM, 35 µM, greater than 40 µM, 30 µM and 11 µM.
For `O=C(CC(CCn1nnc2ccccc2c1=O)C(=O)O)c1cc2cc(OCC3CCOCC3)ccc2o1` (racemic) [Example 5, (+/−)-4-Oxo-2-[2-(4-oxo-1,2,3-benzotriazin-3(4H)-yl)ethyl]-4-[5-(tetrahydro-2H-pyran-4-ylmethoxy)-1-benzofur-2-yl]butanoic acid], in that order: greater than 40 µM, greater than 40 µM, greater than 40 µM, 9.1 µM and 13 µM.
As to `CCCOc1ccc2cc(C(=O)CC(CCn3nnc4ccccc4c3=O)C(=O)O)oc2c1` (racemic) [Example 58, (+/−)-4-Oxo-2-[2-(4-oxo-1,2,3-benzotriazin-3(4H)-yl)ethyl]-4-(6-propoxy-1-benzofur-2-yl)butanoic acid], the half-maximal inhibitory concentration (IC50) is greater than 40 µM on MMP-3; greater than 40 µM against MMP-7; greater than 40 µM at MMP-16; 10 µM on MMP-9; greater than 40 µM against MMP-13.
As for `O=C(CC(CCn1nnc2ccccc2c1=O)C(=O)O)c1cc2ccc(OCCCC3CCCCC3)cc2o1` (racemic) [Example 71, (+/−)-4-[6-(3-Cyclohexylpropoxy)-1-benzofur-2-yl]-4-oxo-2-[2-(4-oxo-1,2,3-benzotriazin-3(4H)-yl)ethyl]butanoic acid], the IC50 is greater than 40 µM at MMP-3; greater than 40 µM against MMP-7; greater than 40 µM on MMP-16; greater than 40 µM on MMP-9; 30 µM at MMP-13.
